Values quoted from earlier work, collected in patent US12324860B2, “Methods of treating central nervous system disorders via administration of nanoparticles of an mTOR inhibitor and an albumin” (Abraxis BioScience, LLC, priority 2018, dated 2025).
Like-named read-outs stand apart in the source and are kept apart here.

Experiments:
[1] = preclinical studies
[2] = retrospective analysis (Lorgis et al. 2012)
[3] = in vivo

For `CO[C@H]1C[C@@H]2CC[C@@H](C)[C@@](O)(O2)C(=O)C(=O)N2CCCC[C@H]2C(=O)O[C@H]([C@H](C)C[C@@H]2CC[C@@H](OCCO)[C@H](OC)C2)CC(=O)[C@H](C)/C=C(\C)[C@@H](O)[C@@H](OC)C(=O)[C@H](C)C[C@H](C)/C=C/C=C/C=C/1C` [everolimus], which brain penetration [1] is on record?
The brain penetration was “poor brain penetration”.

With “bevacizumab: recombinant humanized anti-VEGF antibody” as the molecule, how does the “PFS and OS with low dose intensity (<5 mg/kg/week) versus normal dose intensity at 10 mg/kg” value [2] read?
The value was “improved PFS and OS”.

What does the source list for `COc1ccc(COc2cc3oc(=O)c4cc(C(C)O)ccc4c3cc2OC)cc1` (stereo not shown) [Palomid 529]?
affinity for ABCB1/ABCG2 (ABCB1/ABCG2): lacks affinity; brain penetration [3]: good brain penetration
